The values that follow come from patent US20100069387A1, “IKK Inhibitors for the Treatment of Endometriosis” (priority 2005, published 2010).

The test system of data set [1] is endometriotic lesions. The data set is described as follows: Nude mouse xenograft model of endometriosis (human endometrial tissue injected in ovarectomized nude mice). Format: in vivo. Particulars: for Lesion (% Progesterone) Compared to progesterone treated group, decrease: treatment started 10 days after tissue injection. On the procedure: Human endometrial tissue was injected in ovarectomized nude mice to establish the disease (Bruner-Tran et al 2002). In brief, endometrial biopsies obtained from normal volunteers or from endometriotic patients were cut into small pieces and cultured in the presence of estradiol for 24 h. Treated tissues, were injected either subcutaneously or intraperitoneally into ovarectomized nude mice with estradiol implant. Within 2-4 days of injection, ectopic endometriotic lesions develop in animals. Treatment with either progesterone or IKK inhibitor-5 (1-(4-{4-[4-(4-Chloro-phenyl)-pyrimidin-2-ylamino]-benzoyl}-piperazin-1-yl)-ethanone) was started 10 days following the injection of tissue. The compound was administered at a dose of 10 mg/kg and 30 mg/kg/animal for 15 days. […] Following the completion of treatment, animals were sacrificed, lesions developed from the transplanted tissue found in both subcutaneous and intraperitoneal sites, were measured (both size and number).
The IKK inhibitor treatment had no effect on the uterine weight and size of the animals.
(In general: A xenograft is tissue or cells of one species grown in another, often human tumour cells in immunodeficient mice.)

In data set [2] the test system is endometriotic lesions. To be noted: control treatment; earlier work using this model; cited from earlier work.
For data set [3] the following is noted: cited from earlier work.
Data set [4] relates to endometriotic lesions. To be noted: experimental model of endometriosis; cited from earlier work.
Where [5] appears, read: 10 mg/kg × 15 days, listed as IKK inhibitor.
Where [6] appears, read: 30 mg/kg × 15 days, listed as IKK inhibitor.

For `CC(=O)N1CCN(C(=O)c2ccc(Nc3nccc(-c4ccc(Cl)cc4)n3)cc2)CC1` [IKK inhibitor-5, 1-(4-{4-[4-(4-Chloro-phenyl)-pyrimidin-2-ylamino]-benzoyl}-piperazin-1-yl)-ethanone], the “Lesion size, decrease” value is recorded as 90% Decrease with endometriotic lesions [1] (10 mg/kg × 15 days), 90% with endometriotic lesions [1] (setting [5]), 75% Decrease in the data set with endometriotic lesions [1] (30 mg/kg × 15 days) and 75% in the data set on endometriotic lesions [1] (setting [6]). Also, the “Lesion (% Progesterone) Compared to progesterone treated group, decrease” value amounted to 125% Decrease with endometriotic lesions [1] (10 mg/kg × 15 days), 125% in the data set on endometriotic lesions [1] (setting [5]), 100% Decrease with endometriotic lesions [1] (30 mg/kg × 15 days) and 100% in the data set on endometriotic lesions [1] (setting [6]). The “effect on the uterine weight and size of the animals” value in the data set on endometriotic lesions [1] (nude mice, 15 days treatment) is “no effect”.

For `CC(=O)[C@H]1CC[C@H]2[C@@H]3CCC4=CC(=O)CC[C@]4(C)[C@H]3CC[C@]12C` [progesterone], the disease progression entry in the data set with endometriotic lesions [2] is recorded as “prevents disease progression”.

For the molecule `C#C[C@]1(O)CC[C@H]2[C@@H]3CCC4=Cc5oncc5C[C@]4(C)[C@H]3CC[C@@]21C` [Danazol], the recurrence rates in data set [3] (after up to 4 years) is 40%-50%. Besides, the “patients suffering from pain with improved symptoms” value in data set [3] (endometriosis patients) is given as 66-100%.

B1: rh-TBP-1: recombinant human TNFα binding protein (protein, UniProt P19438 30-211, looked up)
extracellular domain: LVPHLGDREKRDSVCPQGKYIHPQNNSICCTKCHKGTYLYNDCPGPGQDTDCRECESGSFTASENHLRHCLSCSKCRKEMGQVEISSCTVDRDTVCGCRKNQYRHYWSENLFQCFNCSLCLNGTVHLSCQEKQNTVCTCHAGFFLRENECVSCSNCKKSLECTKLCLPQIENVKGTEDSGTT
modifications: extracellular domain
With B1, in the data set on endometriotic lesions [4], the “size and severity of endometriotic lesions” value is “effective in reducing the size and severity of endometriotic lesions”.
